From patent US8791107B2, “N-substituted oxazinopteridines and oxazinopteridinones” (Takeda Pharmaceutical Company Limited, priority 2011, dated 2014)

molecular target: T1, PI3Kδ (Homo sapiens, UniProt O00329); assay: PI3Kδ inhibition, modified PIK3CD Adapta TR-FRET assay; type: biochemical; settings: recombinant GST-tagged full length PIK3CD co-expressed with PIK3R1 (p85α); 2 μM ATP, 50 μM PIP2; read-out: PI3Kδ Inhibition (pIC50) (converted)
T1 construct: The protein is full length and co-expressed with untagged PIK3R1; GST; purchased Invitrogen PV5274
Protocol: The activity of compounds as PI3Kδ inhibitors may be determined by a variety of methods, including in vitro and in vivo methods. The following in vitro assay measures a test compound's ability to inhibit PI3Kδ-mediated phosphorylation of PIP2 and ATP.
Recombinant GST-tagged PIK3CD is purchased from Invitrogen (Part Number: PV5274). The protein is full length and co-expressed with untagged PIK3R1, phosphoinositide-3-kinase regulatory subunit 1 (p85α). The protein is stored at −20° C. in 50 mM TRIS (pH 7.5), 150 mM NaCl, 0.5 mM EDTA, 0.02% Triton® X-100, 2 mM DTT, and 50% glycerol.
A modified PIK3CD Adapta® assay (Invitrogen, Carlsbad, Calif.) is used to measure PI3Kδ inhibition of the example compounds. The assay has two phases. In the first phase, kinase reaction components, which include the enzyme (PIK3CD), substrates (PIP2, ATP), test compound (inhibitor), and assay buffer are added to each well, and the reaction is allowed to incubate for a pre-determined period of time. […] In the presence of the inhibitor, the amount of ADP formed by the kinase reaction is reduced, and the resulting intact antibody-tracer interaction maintains a high TR-FRET signal.
The reaction buffer contains 50 mM Hepes (pH 7.5), 3 mM MgCl2, 1 mM EGTA, 100 mM NaCl, 0.03% CHAPS; 2 mM DTT is added fresh prior to each experiment. […] Next, test compounds (2 μL) from a source plate (5% dilution plate) are introduced into the wells. The final DMSO concentration in each assay well is 1%. […] Other wells contain test compounds serially diluted across the plate 11 times for a total of 12 data points. The kinase reactions are carried out at room temperature and are initiated by the addition of 4 μL of solution containing 2 μM ATP and 50 μM PIP2. […] This emission signal is referenced or “ratioed” to the emission from Eu at 620 nm. […] The percent inhibition for a given inhibitor concentration is computed from % conversion for the reaction and for the positive and negative controls.

T1 sequence (O00329 whole entry): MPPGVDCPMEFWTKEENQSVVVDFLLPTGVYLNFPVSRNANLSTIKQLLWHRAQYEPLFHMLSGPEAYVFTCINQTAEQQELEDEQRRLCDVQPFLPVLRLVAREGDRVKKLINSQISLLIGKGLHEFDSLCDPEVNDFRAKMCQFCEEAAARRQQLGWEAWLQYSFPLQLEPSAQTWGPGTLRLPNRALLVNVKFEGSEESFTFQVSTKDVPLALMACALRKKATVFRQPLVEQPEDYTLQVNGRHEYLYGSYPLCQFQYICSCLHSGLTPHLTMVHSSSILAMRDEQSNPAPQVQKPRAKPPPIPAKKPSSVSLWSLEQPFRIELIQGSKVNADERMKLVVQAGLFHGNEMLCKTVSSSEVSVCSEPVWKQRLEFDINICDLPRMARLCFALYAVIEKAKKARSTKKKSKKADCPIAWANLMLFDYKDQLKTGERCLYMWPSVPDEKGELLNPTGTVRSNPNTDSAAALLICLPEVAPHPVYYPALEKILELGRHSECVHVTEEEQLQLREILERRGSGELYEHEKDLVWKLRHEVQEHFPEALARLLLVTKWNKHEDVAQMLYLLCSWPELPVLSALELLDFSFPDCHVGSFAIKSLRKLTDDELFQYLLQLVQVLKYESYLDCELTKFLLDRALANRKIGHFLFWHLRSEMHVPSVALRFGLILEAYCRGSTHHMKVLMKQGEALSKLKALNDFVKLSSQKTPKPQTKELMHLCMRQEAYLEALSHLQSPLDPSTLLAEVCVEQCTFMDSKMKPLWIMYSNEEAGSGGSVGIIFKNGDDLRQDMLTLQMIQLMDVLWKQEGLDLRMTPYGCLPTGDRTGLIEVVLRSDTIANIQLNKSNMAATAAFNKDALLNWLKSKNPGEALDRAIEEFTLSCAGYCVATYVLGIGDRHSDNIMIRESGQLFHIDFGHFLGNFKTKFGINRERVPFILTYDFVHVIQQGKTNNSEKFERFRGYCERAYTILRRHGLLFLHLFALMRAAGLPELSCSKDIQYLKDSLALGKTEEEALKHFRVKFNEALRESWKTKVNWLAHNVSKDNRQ
T1 sequence (P27986 whole entry partner): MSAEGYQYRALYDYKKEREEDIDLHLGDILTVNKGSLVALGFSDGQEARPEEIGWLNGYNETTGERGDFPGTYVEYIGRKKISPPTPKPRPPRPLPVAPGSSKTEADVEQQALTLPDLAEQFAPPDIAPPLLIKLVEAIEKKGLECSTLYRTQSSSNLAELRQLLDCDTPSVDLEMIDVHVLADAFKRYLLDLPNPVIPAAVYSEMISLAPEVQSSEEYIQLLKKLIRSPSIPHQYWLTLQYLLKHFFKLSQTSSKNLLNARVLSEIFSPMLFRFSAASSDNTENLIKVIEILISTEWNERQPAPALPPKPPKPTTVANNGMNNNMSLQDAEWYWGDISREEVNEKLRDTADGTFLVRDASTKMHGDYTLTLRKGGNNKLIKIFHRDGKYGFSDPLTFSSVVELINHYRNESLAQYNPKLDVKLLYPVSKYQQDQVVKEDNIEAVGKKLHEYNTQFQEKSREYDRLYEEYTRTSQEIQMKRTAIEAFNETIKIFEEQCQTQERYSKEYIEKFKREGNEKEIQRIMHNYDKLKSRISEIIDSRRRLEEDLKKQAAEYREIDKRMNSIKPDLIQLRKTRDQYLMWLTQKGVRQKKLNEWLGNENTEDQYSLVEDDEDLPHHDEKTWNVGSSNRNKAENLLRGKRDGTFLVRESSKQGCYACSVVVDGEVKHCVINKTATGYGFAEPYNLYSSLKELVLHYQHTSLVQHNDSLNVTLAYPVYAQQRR

Row | IC50 [µM] | Compound
1 | 0.0158 | CCOC(=O)c1cncc(N2C[C@@H]3COCCN3c3nc(-c4cccc5[nH]ccc45)ncc32)c1 [Example 198, (R)-ethyl 5-(2-(1H-indol-4-yl)-6a,7,9,10-tetrahydro-[1,4]oxazino[3,4-h]pteridin-5(6H)-yl)nicotinate]
2 | 2 | O=C(CN1C[C@@H]2COCCN2c2nc(-c3ccc(CO)cc3)ncc21)NCC1CCOCC1 [Example 214, (R)-2-(2-(4-(hydroxymethyl)phenyl)-6a,7,9,10-tetrahydro-[1,4]oxazino[3,4-h]pteridin-5(6H)-yl)-N-((tetrahydro-2H-pyran-4-yl)methyl)acetamide]
3 | 0.00794 | OC1CCC(N2C[C@@H]3COCCN3c3nc(-c4cccc5[nH]ccc45)ncc32)CC1 (stereo partly drawn) [Example 189, (R)-4-(2-(1H-indol-4-yl)-6a,7,9,10-tetrahydro-[1,4]oxazino[3,4-h]pteridin-5(6H)-yl)cyclohexanol]
4 | 3.16 | N[C@H]1CC[C@H](CN2C[C@@H]3COCCN3c3nc(-c4cccc5[nH]ccc45)ncc32)CC1 [Example 197]
5 | 1.58 | CNS(=O)(=O)c1cccc(-c2ncc3c(n2)N2CCOCC2C(=O)N3Cc2ccc(S(C)(=O)=O)cc2)c1 (stereo not shown) [Example 111, N-methyl-3-(5-(4-(methylsulfonyl)benzyl)-6-oxo-5,6,6a,7,9,10-hexahydro-[1,4]oxazino[3,4-h]pteridin-2-yl)benzenesulfonamide]
6 | 2 | Cc1c[nH]c2c(F)ccc(-c3ncc4c(n3)N3CCOCC3C(=O)N4Cc3ccc(S(C)(=O)=O)cc3)c12 (stereo not shown) [Example 143, 2-(7-fluoro-3-methyl-1H-indol-4-yl)-5-(4-(methylsulfonyl)benzyl)-6a,7,9,10-tetrahydro-[1,4]oxazino[3,4-h]pteridin-6(5H)-one]
7 | 0.0316 | CNC(=O)Nc1ccc(-c2ncc3c(n2)N2CCOC[C@H]2CN3CC(=O)NCC2CCOCC2)cc1 [Example 222, (R)-2-(2-(4-(3-methylureido)phenyl)-6a,7,9,10-tetrahydro-[1,4]oxazino[3,4-h]pteridin-5(6H)-yl)-N-((tetrahydro-2H-pyran-4-yl)methyl)acetamide]
8 | 0.631 | COc1cc(-c2ncc3c(n2)N2CCOCC2C(=O)N3Cc2ccc(S(C)(=O)=O)cc2)ccn1 (stereo not shown) [Example 140, 2-(2-methoxypyridin-4-yl)-5-(4-(methylsulfonyl)benzyl)-6a,7,9,10-tetrahydro-[1,4]oxazino[3,4-h]pteridin-6(5H)-one]
9 | 0.00631 | CNC(=O)Nc1ccc(-c2ncc3c(n2)N2CCOCC2C(=O)N3C2(c3ccc(Cl)cc3)CC2)cc1 (stereo not shown) [Example 99, 1-(4-(5-(1-(4-chlorophenyl)cyclopropyl)-6-oxo-5,6,6a,7,9,10-hexahydro-[1,4]oxazino[3,4-h]pteridin-2-yl)phenyl)-3-methylurea]
10 | 0.00631 | C[C@@H](c1ccc(Cl)cc1)N1C(=O)C2COCCN2c2nc(-c3cnc(N)nc3)ncc21 (mixture of isomers) [Example 162]
11 | 0.00316 | CS(=O)(=O)c1cccc(N2C[C@@H]3COCCN3c3nc(-c4cccc5[nH]ccc45)ncc32)c1 [Example 191, (R)-2-(1H-indol-4-yl)-5-(3-(methylsulfonyl)phenyl)-5,6,6a,7,9,10-hexahydro-[1,4]oxazino[3,4-h]pteridine]
12 | 0.02 | CS(=O)(=O)c1ccc(CN2C(=O)C3COCCN3c3nc(-c4ccc(F)c5[nH]ccc45)ncc32)cc1 (stereo not shown) [Example 142, 2-(7-fluoro-1H-indol-4-yl)-5-(4-(methylsulfonyl)benzyl)-6a,7,9,10-tetrahydro-[1,4]oxazino[3,4-h]pteridin-6(5H)-one]
13 | 0.0501 | Cn1cc(NC(=O)CN2C[C@@H]3COCCN3c3nc(-c4cccc5[nH]ccc45)ncc32)cn1 [Example 206, (R)-2-(2-(1H-indol-4-yl)-6a,7,9,10-tetrahydro-[1,4]oxazino[3,4-h]pteridin-5(6H)-yl)-N-(1-methyl-1H-pyrazol-4-yl)acetamide]
14 | 0.0398 | Cc1ccc([C@H](C)N2C(=O)[C@@H]3COCCN3c3nc(-c4cccc5[nH]ccc45)ncc32)cc1 (single isomer, unassigned) [Example 153]

Continued, compound first:

Row | Compound | IC50 [µM]
15 | CNC(=O)Nc1ccc(-c2ncc3c(n2)N2CCOCC2CN3Cc2ccccc2)cc1 (stereo not shown) [Example 61, 1-(4-(5-benzyl-5,6,6a,7,9,10-hexahydro-[1,4]oxazino[3,4-h]pteridin-2-yl)phenyl)-3-methylurea] | 0.631
16 | CC(C)(O)CNC(=O)CN1C[C@@H]2COCCN2c2nc(-c3cccc4[nH]ccc34)ncc21 [Example 71, (R)-2-(2-(1H-indol-4-yl)-6a,7,9,10-tetrahydro-[1,4]oxazino[3,4-h]pteridin-5(6H)-yl)-N-(2-hydroxy-2-methylpropyl)acetamide] | 0.398
17 | CNC(=O)Nc1ccc(-c2ncc3c(n2)N2CCOCC2CN3Cc2ccc(C)cc2)cc1 (stereo not shown) [Example 62, 1-methyl-3-(4-(5-(4-methylbenzyl)-5,6,6a,7,9,10-hexahydro-[1,4]oxazino[3,4-h]pteridin-2-yl)phenyl)urea] | 0.794
18 | O=C(O)CN1C[C@@H]2COCCN2c2nc(-c3cccc4[nH]ccc34)ncc21 [Example 69, (R)-2-(2-(1H-indol-4-yl)-6a,7,9,10-tetrahydro-[1,4]oxazino[3,4-h]pteridin-5(6H)-yl)acetic acid] | 2.51
19 | CNC(=O)Nc1ccc(-c2ncc3c(n2)N2CCOCC2C(=O)N3Cc2ccc(S(C)(=O)=O)cc2)cc1 (stereo not shown) [Example 91, 1-methyl-3-(4-(5-(4-(methylsulfonyl)benzyl)-6-oxo-5,6,6a,7,9,10-hexahydro-[1,4]oxazino[3,4-h]pteridin-2-yl)phenyl)urea] | 0.000794
20 | c1cc(-c2ncc3c(n2)N2CCOCC2CN3)c2cc[nH]c2c1 (stereo not shown) [Example 2, 2-(1H-indol-4-yl)-5,6,6a,7,9,10-hexahydro-[1,4]oxazino[3,4-h]pteridine] | 0.0501
21 | CNC(=O)Nc1ccc(-c2ncc3c(n2)N2CCOCC2C(=O)N3Cc2cccc(-n3cccc3)c2)cc1 (stereo not shown) [Example 90, 1-(4-(5-(3-(1H-pyrrol-1-yl)benzyl)-6-oxo-5,6,6a,7,9,10-hexahydro-[1,4]oxazino[3,4-h]pteridin-2-yl)phenyl)-3-methylurea] | 0.00501
22 | CS(=O)(=O)c1ccc(CN2CC3COCCN3c3nc(-c4cnc5[nH]ccc5c4)ncc32)cc1 (stereo not shown) [Example 25, 5-(4-(methylsulfonyl)benzyl)-2-(1H-pyrrolo[2,3-b]pyridin-5-yl)-5,6,6a,7,9,10-hexahydro-[1,4]oxazino[3,4-h]pteridine] | 0.158
23 | CS(=O)(=O)c1ccc(CN2CC3COCCN3c3nc(-c4cncc5[nH]ccc45)ncc32)cc1 (stereo not shown) [Example 23, 5-(4-(methylsulfonyl)benzyl)-2-(1H-pyrrolo[2,3-c]pyridin-4-yl)-5,6,6a,7,9,10-hexahydro-[1,4]oxazino[3,4-h]pteridine] | 0.00501
24 | N[C@H]1CC[C@H](CN2CC3COCCN3c3nc(-c4cccc5[nH]ccc45)ncc32)CC1 (stereo partly shown) [Example 58, (1r,4r)-4-((2-(1H-indol-4-yl)-6a,7,9,10-tetrahydro-[1,4]oxazino[3,4-h]pteridin-5(6H)-yl)methyl)cyclohexanamine] | 0.501
25 | CNC(=O)Nc1ccc(-c2ncc3c(n2)N2CCOCC2C(=O)N3Cc2ccc(S(C)(=O)=O)cc2Cl)cc1 (stereo not shown) [Example 95, 1-(4-(5-(2-chloro-4-(methylsulfonyl)benzyl)-6-oxo-5,6,6a,7,9,10-hexahydro-[1,4]oxazino[3,4-h]pteridin-2-yl)phenyl)-3-methylurea] | 0.000794
